The record followed here is patent US11753404B2, “Aminothiazole compounds as c-Kit inhibitors” (Ariad Pharmaceuticals, Inc., priority 2016, dated 2023).

Holding throughout (experiment): c-Kit assay: Ba/F3 KIT mutant cell viability (Cell Titer-Glo, 72 hours)
Format in all cases: cell-based
What all share (conditions): viability after 72 hours
(Cellular ATP, detected with luciferase, serves as a proxy for viable cell number.)

The target in one assay is T1, BAF3 FL KIT EX11DEL (Homo sapiens, UniProt P10721, cells depend on it, form not given).
T1 construct: BAF3 FL KIT EX11DEL
T1 sequence (P10721 with tags, fused parts or gaps DEL557-558): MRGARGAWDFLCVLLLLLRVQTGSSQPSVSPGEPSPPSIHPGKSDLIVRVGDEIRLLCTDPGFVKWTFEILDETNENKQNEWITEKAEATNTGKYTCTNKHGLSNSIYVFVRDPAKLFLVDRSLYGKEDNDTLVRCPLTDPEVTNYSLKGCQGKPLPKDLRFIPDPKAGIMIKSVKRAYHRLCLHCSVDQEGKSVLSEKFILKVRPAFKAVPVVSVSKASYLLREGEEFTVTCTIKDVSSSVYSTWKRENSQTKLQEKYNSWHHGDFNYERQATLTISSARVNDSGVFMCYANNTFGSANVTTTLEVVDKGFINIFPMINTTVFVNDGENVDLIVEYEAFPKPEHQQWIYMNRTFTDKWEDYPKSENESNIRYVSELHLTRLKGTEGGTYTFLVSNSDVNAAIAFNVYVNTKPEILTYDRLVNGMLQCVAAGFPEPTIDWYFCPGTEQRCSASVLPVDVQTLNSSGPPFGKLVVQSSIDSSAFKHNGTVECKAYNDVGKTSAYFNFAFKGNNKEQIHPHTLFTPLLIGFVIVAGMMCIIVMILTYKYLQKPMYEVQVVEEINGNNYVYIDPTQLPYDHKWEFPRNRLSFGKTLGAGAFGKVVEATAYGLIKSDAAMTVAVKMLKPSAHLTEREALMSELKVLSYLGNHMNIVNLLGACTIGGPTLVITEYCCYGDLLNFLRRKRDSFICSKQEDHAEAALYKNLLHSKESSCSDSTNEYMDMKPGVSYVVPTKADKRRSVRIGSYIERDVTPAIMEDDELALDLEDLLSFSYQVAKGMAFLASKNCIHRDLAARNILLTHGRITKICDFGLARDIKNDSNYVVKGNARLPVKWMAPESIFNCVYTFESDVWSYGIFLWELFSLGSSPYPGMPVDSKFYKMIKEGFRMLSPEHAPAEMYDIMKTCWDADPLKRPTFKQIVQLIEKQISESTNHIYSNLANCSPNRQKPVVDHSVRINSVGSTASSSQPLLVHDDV
As for the experimental part: (§1) Generation of DBa/F3 KIT Mutant Engineered Cell Lines
(§2) KIT cDNAs were synthesized by GenScript and cloned into the pLVX-IRES-Puro vector (Clontech). Viral particles were produced by transfecting pLVX-IRES-puro vectors containing KIT mutant genes into HEK293 cells (Invitrogen) using the Trans-Lentiviral ORF Packaging Kit (Thermo Scientific). 48 hours post-transfection, virus-containing supernatants were harvested and incubated for another 48-72 hours with parental Ba/F3 cells (DSMZ) in the presence of 10 ng/mL IL-3 (R&D Systems). Transduced Ba/F3 cells were then selected by IL-3 withdrawal and puromycin (0.5-1 μg/mL, Invitrogen).
(§3) Cell lines (e.g., EX11DEL, EX11DEL/D816H, EX11DEL/T670I, and EX11DEL/V654A) were plated into 384 well plates using RPMI 1640 supplemented with 10% FBS at densities that produced linear growth and incubated at 37° C. in 5% (v/v) CO2. Cells were treated with eight concentrations of compound over a 4-fold dilution (10 μM to 0.61 nM) and viability was assessed using Cell Titer-Glo assay (Promega) after 72 hours. Data were plotted as percent viability relative to vehicle-treated cells. Dose-responses curves were generated and used to calculate IC50 values.

In assay [1] the target is T2, BAF3 FL KIT EX11DEL/D816H (Homo sapiens, UniProt P10721, D816H, cells depend on it, form not given).
T2 construct: BAF3 FL KIT EX11DEL/D816H
T2 sequence (P10721 with tags, fused parts or gaps DEL557-558/D816H, form open): as the sequence (P10721 with tags, fused parts or gaps DEL557-558) above, with D814H counted along it
As for the experimental part: as §1, §2, §3

Assay [2] addresses T3, BAF3 FL KIT EX11DEL/T670I (Homo sapiens, UniProt P10721, T670I, cells depend on it, form not given).
T3 construct: BAF3 FL KIT EX11DEL/T670I
As for the experimental part: as §1, §2, §3

In assay [3] the target is T4, BAF3 FL KIT EX11DEL/V654A (Homo sapiens, UniProt P10721, V654A, cells depend on it, form not given).
T4 construct: BAF3 FL KIT EX11DEL/V654A
T4 sequence (P10721 with tags, fused parts or gaps DEL557-558/V654A, form open): as the sequence (P10721 with tags, fused parts or gaps DEL557-558) above, with V652A counted along it
As for the experimental part:
as §1, §2, §3

Bounds are passed on as bounds.

What is called GI50 is the concentration at which growth is held to half of that of the control. Low values mean more potent growth inhibition, high ones less potent growth inhibition.

T3 sequence (P10721 with tags, fused parts or gaps DEL557-558/T670I, form open): as the sequence (P10721 with tags, fused parts or gaps DEL557-558) above, with T668I counted along it

For the compound `Cc1ccc(C(=O)Nc2cc(C(F)(F)F)ccn2)cc1C#Cc1cnc(NC(=O)NCC(C)(C)O)s1` [I-15, 3-((2-(3-(2-hydroxy-2-methylpropyl)ureido)thiazol-5-yl)ethynyl)-4-methyl-N-(4-(trifluoromethyl)pyridin-2-yl)benzamide], the GI50 was < 10 nM on BAF3 FL KIT EX11DEL, 10 to 50 nM in assay [1], 10 to 50 nM in assay [2] and 10 to 50 nM in assay [3].
Consider `Cc1ccc(C(=O)Nc2cc(C(F)(F)F)ccn2)cc1C#Cc1cnc(NC(=O)N(C)CCN2CCN(C)CC2)s1` [I-16, 4-methyl-3-((2-(3-methyl-3-(2-(4-methylpiperazin-1-yl)ethyl)ureido)thiazol-5-yl)ethynyl)-N-(4-(trifluoromethyl)pyridin-2-yl)benzamide], for which the GI50 at BAF3 FL KIT EX11DEL was < 10 nM; in assay [1], 10 to 50 nM; in assay [2], < 10 nM; in assay [3], 10 to 50 nM.
On to `Cc1ccc(C(=O)Nc2cc(C(F)(F)F)ccn2)cc1C#Cc1cnc(NC(=O)NCCN2CCN(C)CC2)s1` [I-14, 4-methyl-3-((2-(3-(2-(4-methylpiperazin-1-yl)ethyl)ureido)thiazol-5-yl)ethynyl)-N-(4-(trifluoromethyl)pyridin-2-yl)benzamide], for which the GI50 is < 10 nM at BAF3 FL KIT EX11DEL, 10 to 50 nM in assay [1], 10 to 50 nM in assay [2] and 10 to 50 nM in assay [3].
On to `Cc1ccc(C(=O)Nc2cc(C(F)(F)F)ccn2)cc1C#Cc1cnc(NC(=O)NCc2ccncc2)s1` [I-26, 4-methyl-3-((2-(3-(pyridin-4-ylmethyl)ureido)thiazol-5-yl)ethynyl)-N-(4-(trifluoromethyl)pyridin-2-yl)benzamide], for which the GI50 (at BAF3 FL KIT EX11DEL; in assay [1]; in assay [2]; in assay [3]) was 10 to 50 nM each time.
With `Cc1ccc(NC(=O)c2cccc(OC(F)(F)F)c2)cc1C#Cc1cnc(NC(=O)N(C)C)s1` [I-56, N-(3-((2-(3,3-dimethylureido)thiazol-5-yl)ethynyl)-4-methylphenyl)-3-(trifluoromethoxy)benzamide], the GI50 at BAF3 FL KIT EX11DEL is < 10 nM; in assay [1], 10 to 50 nM; in assay [2] it was 10 to 50 nM; in assay [3] it was 10 to 50 nM.
For `COCCNC(=O)Nc1ncc(C#Cc2cc(C(=O)Nc3cc(C(F)(F)F)ccn3)ccc2C)s1` [I-5, 3-((2-(3-(2-methoxyethyl)ureido)thiazol-5-yl)ethynyl)-4-methyl-N-(4-(trifluoromethyl)pyridin-2-yl)benzamide], the GI50 at BAF3 FL KIT EX11DEL was < 10 nM; in assay [1], 10 to 50 nM; in assay [2] it was 10 to 50 nM; in assay [3], 10 to 50 nM.
On to `CCN(CC)CCN(C)C(=O)Nc1ncc(C#Cc2cc(NC(=O)c3cc(C(F)(F)F)ccn3)ccc2C)s1` [I-59, N-(3-((2-(3-(2-(diethylamino)ethyl)-3-methylureido)thiazol-5-yl)ethynyl)-4-methylphenyl)-4-(trifluoromethyl)picolinamide], for which the 50% growth inhibitory concentration (GI50) is 10 to 50 nM at BAF3 FL KIT EX11DEL, 50 to 100 nM in assay [1], 100 to 10000 nM in assay [2] and 100 to 10000 nM in assay [3].
On to `CNCCN(C)C(=O)Nc1ncc(C#Cc2cc(C(=O)Nc3cc(C(F)(F)F)ccn3)ccc2C)s1` [I-28, 4-methyl-3-((2-(3-methyl-3-(2-(methylamino)ethyl)ureido)thiazol-5-yl)ethynyl)-N-(4-(trifluoromethyl)pyridin-2-yl)benzamide], for which the GI50 at BAF3 FL KIT EX11DEL was < 10 nM; in assay [1] it was 10 to 50 nM; in assay [2] it was 10 to 50 nM; in assay [3], 10 to 50 nM.
On to `Cc1ccc(C(=O)Nc2cc(C(F)(F)F)ccn2)cc1C#Cc1cnc(NC(=O)N2CC(C)(O)C2)s1` [I-24, 3-hydroxy-3-methyl-N-(5-((2-methyl-5-((4-(trifluoromethyl)pyridin-2-yl)carbamoyl)phenyl)ethynyl)thiazol-2-yl)azetidine-1-carboxamide], for which the GI50 (on BAF3 FL KIT EX11DEL; in assay [1]; in assay [2]; in assay [3]) was < 10 nM each time.
Consider `Cc1ccc(C(=O)Nc2cc(C(F)(F)F)ccn2)cc1C#Cc1cnc(NC(=O)NCCN2CCOCC2)s1` [I-6, 4-methyl-3-((2-(3-(2-morpholinoethyl)ureido)thiazol-5-yl)ethynyl)-N-(4-(trifluoromethyl)pyridin-2-yl)benzamide], for which the GI50 at BAF3 FL KIT EX11DEL was < 10 nM; in assay [1] it was 10 to 50 nM; in assay [2], 10 to 50 nM; in assay [3], 10 to 50 nM.
For the compound `Cc1ccc(C(=O)Nc2cc(C(F)(F)F)ccn2)cc1C#Cc1cnc(NC(=O)NCCN(C)C)s1` [I-11, 3-((2-(3-(2-(dimethylamino)ethyl)ureido)thiazol-5-yl)ethynyl)-4-methyl-N-(4-(trifluoromethyl)pyridin-2-yl)benzamide], the GI50 on BAF3 FL KIT EX11DEL is < 10 nM; in assay [1], 10 to 50 nM; in assay [2] it was 10 to 50 nM; in assay [3] it was 10 to 50 nM.
With `COCCN(C)C(=O)Nc1ncc(C#Cc2cc(C(=O)Nc3cc(C(F)(F)F)ccn3)ccc2C)s1` [I-7, 3-((2-(3-(2-methoxyethyl)-3-methylureido)thiazol-5-yl)ethynyl)-4-methyl-N-(4-(trifluoromethyl)pyridin-2-yl)benzamide], the GI50 at BAF3 FL KIT EX11DEL was < 10 nM; in assay [1], 10 to 50 nM; in assay [2], < 10 nM; in assay [3] it was 10 to 50 nM.
Take `COCCN(C)C(=O)Nc1ncc(C#Cc2cc(NC(=O)c3cc(C(F)(F)F)ccn3)ccc2C)s1` [I-54, N-(3-((2-(3-(2-methoxyethyl)-3-methylureido)thiazol-5-yl)ethynyl)-4-methylphenyl)-4-(trifluoromethyl)picolinamide]: the 50% growth inhibitory concentration (GI50) on BAF3 FL KIT EX11DEL is < 10 nM; in assay [1], 10 to 50 nM; in assay [2], 10 to 50 nM; in assay [3], 10 to 50 nM.
Turning to `CC(=O)Nc1ncc(C#Cc2cc(C(=O)Nc3cc(C(F)(F)F)ccn3)ccc2C)s1` [I-51, 3-((2-acetamidothiazol-5-yl)ethynyl)-4-methyl-N-(4-(trifluoromethyl)pyridin-2-yl)benzamide], the GI50 on BAF3 FL KIT EX11DEL is < 10 nM; in assay [1], 10 to 50 nM; in assay [2] it was 10 to 50 nM; in assay [3], 10 to 50 nM.
Regarding `CNC(=O)Nc1ncc(C#Cc2cc(NC(=O)c3cc(C(F)(F)F)ccn3)ccc2C)s1` [I-57, N-(4-methyl-3-((2-(3-methylureido)thiazol-5-yl)ethynyl)phenyl)-4-(trifluoromethyl)picolinamide], the GI50 on BAF3 FL KIT EX11DEL is < 10 nM; in assay [1] it was < 10 nM; in assay [2], 10 to 50 nM; in assay [3] it was < 10 nM.
`Cc1ccc(C(=O)Nc2cc(C(F)(F)F)ccn2)cc1C#Cc1cnc(NC(N)=O)s1` [I-2, 4-methyl-N-(4-(trifluoromethyl)pyridin-2-yl)-3-((2-ureidothiazol-5-yl)ethynyl)benzamide]: the GI50 at BAF3 FL KIT EX11DEL is < 10 nM; in assay [1], 10 to 50 nM; in assay [2], < 10 nM; in assay [3], < 10 nM.
As for `Cc1ccc(C(=O)Nc2cc(C(F)(F)F)ccn2)cc1C#Cc1cnc(NC(=O)N2CCC(N(C)C)C2)s1` (centres unmarked) [I-40, 3-(dimethylamino)-N-(5-((2-methyl-5-((4-(trifluoromethyl)pyridin-2-yl)carbamoyl)phenyl)ethynyl)thiazol-2-yl)pyrrolidine-1-carboxamide], the GI50 at BAF3 FL KIT EX11DEL is < 10 nM; in assay [1], 10 to 50 nM; in assay [2], < 10 nM; in assay [3], 10 to 50 nM.
Take `Cc1ccc(C(=O)Nc2cc(C(F)(F)F)ccn2)cc1C#Cc1cnc(NC(=O)NCC2CCN(C)CC2)s1` [I-13, 4-methyl-3-((2-(3-((1-methylpiperidin-4-yl)methyl)ureido)thiazol-5-yl)ethynyl)-N-(4-(trifluoromethyl)pyridin-2-yl)benzamide]: the GI50 on BAF3 FL KIT EX11DEL is < 10 nM; in assay [1] it was 10 to 50 nM; in assay [2], 10 to 50 nM; in assay [3], 10 to 50 nM.
`Cc1ccc(C(=O)Nc2cc(C(F)(F)F)ccn2)cc1C#Cc1cnc(NC(=O)N(C)C2CCN(C)CC2)s1` [I-29, 4-methyl-3-((2-(3-methyl-3-(1-methylpiperidin-4-yl)ureido)thiazol-5-yl)ethynyl)-N-(4-(trifluoromethyl)pyridin-2-yl)benzamide]: the GI50 was < 10 nM at BAF3 FL KIT EX11DEL, < 10 nM in assay [1], < 10 nM in assay [2] and 10 to 50 nM in assay [3].
Regarding `COCCN(C)C(=O)Nc1ncc(C#Cc2cccc(NC(=O)c3cc(C(F)(F)F)ccn3)c2)s1` [I-61, N-(3-((2-(3-(2-methoxyethyl)-3-methylureido)thiazol-5-yl)ethynyl)phenyl)-4-(trifluoromethyl)picolinamide], the GI50 on BAF3 FL KIT EX11DEL was < 10 nM; in assay [1], 10 to 50 nM; in assay [2], 10 to 50 nM; in assay [3], 10 to 50 nM.
